Reference: patent publication US20160082015A1, “METHODS, COMPOSITIONS AND KITS FOR PROMOTING MOTOR NEURON SURVIVAL AND TREATING AND DIAGNOSING NEURODEGENERATIVE DISORDERS” (PRESIDENT AND FELLOWS OF HARVARD COLLEGE, priority 2013, published 2016)

Legend:
[1] = tested on: site-specific phosphorylation of kinases in MN cultures; assay: Phospho-Kinase Antibody Array; format: cell-based, mouse
Experimental: Freshly dissociated HB9::GFP EBs were plated at a density of 3 million GFP+ cells/10 cm dish and trophic factor withdrawal/compound addition was performed on day 4. Protein lysates were generated 6 and 24 h after treatment using RIPA buffer supplemented with protease and phosphatase inhibitors (Pierce Biotechnology). Equal amounts of total protein from treatment groups were added to Phospho-Kinase Antibody Arrays (R&D Systems, #ARY003). Arrays were prepared following the manufacturer's instructions and developed with SuperSignal West Pico Chemiluminescent Substrate (Pierce Biotechnology). Background signal was subtracted and duplicate spot pixel densities were averaged using QuantityOne software (BioRad).

SOD1^G93A/HB9::GFP MNs = assay: Image analyses of synapses and neurite arborization; format: cell-based, mouse; settings: 5 μM
Excerpt: (§1) For synapse analysis, the inventors quantified imaging data using the PerkinElmer Acapella software spot detection algorithm. Synapses were defined as the overlap of presynaptic and postsynaptic spots on MNs. On each GFP^+ cell, we first drew a circle around the cell body with a diameter of approximately two cell body diameters, similar to that described by Ullian et al. (Schwann cells and astrocytes induce synapse formation by spinal motor neurons in culture. Mol Cell Neurosci., 2004, 25: 241-251) as the area for spot detection. Within each circle, presynaptic sites were detected using a primary antibody against synapsin and a secondary antibody conjugated with Alexa-632. Candidate spots that met an average intensity threshold were accepted as legitimate presynaptic punctac. Then we expanded the radius of each presynaptic puncta by 1 pixel, since the pre- and post-synaptic spots often were slightly offset, especially at higher magnifications, and measured the intensity in the postsynaptic channel, using a PSD95 primary antibody and a secondary antibody conjugated with Alexa-546. Postsynaptic punctae that exceeded the threshold mean intensity threshold were accepted, permitting us to define “colocalized” spots, or synapses.
(§2) The neurite tracing method in Acapella software is based on methods developed at CSIRO at perkinelmer.com/pages/020/cellularimaging/assaysneuriteoutgrowth.xhtm. The cell bodies of MNs were located by expression of HB9:GFP, and the neurites were also detected by GFP fluorescence. The algorithm measured the lengths and fluorescence intensities of each neurite and the branching level (primary, secondary, etc). The total lengths of neurites and the numbers, lengths and fluorescent intensities of primary and secondary branches were measured based on selected threshold parameters.

HB9::GFP MNs [2] = assay: as above; format: cell-based, mouse; settings: 5 μM
Excerpt: as §1, §2

[3] = tested on: GSK-3-deficient MN cultures; assay: MN survival using GSK-3 knockout lines; format: cell-based, mouse; settings: trophic factors withdrawn
Excerpt: In these cultures, approximately 70% of Isl+/MAP2+ cells were GFP+(i.e., MNs). However, after trophic factor withdrawal, because MNs die selectively under these conditions, only about 50% of Isl+/MAP2+ cells were GFP+MNs. This means that counting Isl+/MAP2+ cells could overestimate the amount of survival after trophic factor withdrawal by approximately 40%. When deprived of neurotrophins, 35% of wild-type Isl+/MAP2+ cells survived, while 44%, 57% and 54% of Isl+/MAP2+ cells in GSK-3[…]-KO, GSK-3[…]-KO and 3/4-KO cultures survived. Using the correction factor for overcounting surviving MNs, this would mean that wild-type MN survival would be approximately 25%, while the KO MNs would have 31%, 41% and 39% survival, respectively.
The inventors used another approach to address the issue of GSK-3 and survival. The inventors produced MNs from the following mouse ESC lines: GSK-3α^−/− (GSK-3α-KO), GSK-3^−/− (GSK-3β-KO), and GSK-3α^+/−/GSK-3β^−/− (3/4-KO). Note that ESCs that are GSK-3α^−/−/GSK-3β^−/− were not able to differentiate into neurons (Doble et al., 2007). Cell death was again initiated by withdrawal of trophic factors and the ability of kenpaullone to promote survival was evaluated. […] The inventors validated this staining method using MN cultures prepared from Hb9::GFP ESCs. In these cultures, approximately 70% of Isl^+/MAP2^+ cells were GFP^+ (i.e., MNs). […]

HB9::GFP MNs [4] = assay: Mouse MN survival assay, trophic factor withdrawal; settings: for survival of HB9::GFP MNs: trophic factors removed and compound added day 4, fixed day 7
Experimental: For the small molecule screen or for standard survival assays, freshly dissociated EBs were plated at a density of 8,000 GFP^+ cells (384-well) or 30.000 GFP+ cells (96-well) per well. Four days later (day 4), trophic factors (BDNF, GDNF and CNTF) were removed, and individual compounds were added to the wells. For the primary screen each was tested at three concentrations (0.1 μM, 1 μM and 10 μM) in duplicate. […] The number of MNs surviving was analyzed by counting the remaining GFP^+ cells in the whole well. Total cell numbers were obtained by counting Hoechst-positive nuclei. A size threshold was set based on control cultures to eliminate apoptotic MNs Unless stated otherwise, survival is measured as fold-increase compared to cultures maintained without trophic factors.
For long-term MN survival assays, MN cultures were fed with fresh medium and compounds every two days until fixation and quantification as above.
All primary hits were subsequently tested in a nine-point dose-response assay, using the same screening protocol.
HB9::GFP MNs [5] = assay: Whole-cell voltage-clamp and current-clamp recordings; format: cell-based, mouse; settings: −TF/+kenpaullone, 3 days
Experimental: Images show synapsin (yellow) and PSD95 (red) staining on a kenpaullone-treated MN. Arrows indicate examples of synapses on MNs. Data are presented as mean±SEM. Scale bar represents 50 μm. […] HB9::GFP MNs treated for 3 days in the absence of trophic factors (−TF/+kenpaullone) were compared to MNs that were grown in complete medium (+TF) in terms of functional sodium and potassium currents, action potentials, response to excitatory neurotransmitter (kainate, 100 μM), and response to inhibitory neurotransmitter (GABA, 100 μM).
Whole-cell voltage-clamp and current-clamp recordings were performed as described (Son et al., 2011).
To examine whether kenpaullone could maintain neuronal health during trophic factor withdrawal, the inventors also compared the electrophysiological properties of MNs grown in complete medium (+TF) with those of cells in trophic factor-deficient (−TF) medium with or without kenpaullone supplementation (FIGS. 4C and 10G). First of all, when the inventors attempted to record from cells grown in medium lacking both trophic factors and kenpaullone, the inventors were unable to obtain stable recordings despite a significant number of patch attempts. […] The inventors also recorded responses to excitatory neurotransmitters, such as kainate, and Inhibitory transmitters, such as GABA, in the two sets of MNs.

[6] = trophic factors removed day 4, analyzed day 21

## O=C1Cc2c([nH]c3ccc(Br)cc23)-c2ccccc2N1 [Kenpaullone]
[1]
  relative phosphorylation of GSK-3: significant reduction
  relative phosphorylation of c-Jun: reduction
  relative phosphorylation of cJun N-terminal kinase (JNK): reduction
SOD1^G93A/HB9::GFP MNs; no trophic factors, day 21
  synapses per MN: supported their ability to maintain morphological synapses
SOD1^G93A/HB9::GFP MNs; [6]
  neurite growth of MNs: allowing neurite growth beyond that seen in cells kept in trophic factors
HB9::GFP MNs [2]; no trophic factors, day 21
  number of synapses per MN: dramatic increase
HB9::GFP MNs [2]; [6]
  neuritic network of MNs: maintain the neuritic network of these cells at levels seen in trophic factor supplemented cultures
[3]
  MN survival in GSK-3-deficient cultures: still active
HB9::GFP MNs [4]; Ara-C before trophic factor withdrawal
  MN survival effect after Ara-C treatment to eliminate dividing progenitors: did not decrease the effect
HB9::GFP MNs [4]; days 7, 14, 21 and 28
  long-term survival of MNs without trophic factors: improved survival
HB9::GFP MNs [4]; first two weeks
  MN death in complete medium (+TF): reduced the death
HB9::GFP MNs [4]; highly enriched Hb9::GFP MN cultures, Ara-C, trophic factors removed
  survival of FACS purified MNs: still able to promote survival
HB9::GFP MNs [4]
  survival of HB9::GFP MNs: strong effects
HB9::GFP MNs [4]; listed as kenpaullone
  survival of HB9::GFP MNs: potent survival promoting effects
HB9::GFP MNs [5]
  electrophysiological properties compared with MNs in complete medium (+TF): no significant difference
